Reference: publication PMC5423501 (The Oncologist, 2017)
“Also recorded” adds a separate entry of the source. Where two headings read alike, the source gives them in different places.

Assays:
[1] = Steady-state plasma pharmacokinetics, cycle 1 day 8; format: in vivo, human
[2] = system: patients with HCC; details: phase III trial in HCC; cited from earlier work
[3] = system: patients with Kaposi sarcoma; details: in vivo
[4] = system: patients with HIV and HCC; details: 27 patients with HIV and HCC, 400 mg sorafenib twice daily, retrospective; cited from earlier work
[5] = system: IL‐12p40; test: Serum factors, V-Plex assay, baseline vs end of cycle 1; format: in vivo, human; details: baseline to end of cycle 1; p = .002
[6] = system: Kaposi sarcoma; test: KS response assessment; format: in vivo, human
[7] = system: bFGF; test: Serum factors, V-Plex assay, baseline vs end of cycle 1; format: in vivo, human; details: baseline to end of cycle 1; p = .018
[8] = system: patients with HIV and cancer; details: cited from earlier work

For `CNC(=O)c1cc(Oc2ccc(NC(=O)Nc3ccc(Cl)c(C(F)(F)F)c3)cc2)cc[n+]1[O-]` [Sorafenib N-Oxide, Sorafenib N‐oxide], the “decrease of AUCTAU of sorafenib-N-oxide in patients receiving ritonavir” value ([1]; trend, p = .08) was 3.8 fold.
For `CNC(=O)c1cc(Oc2ccc(NC(=O)Nc3ccc(Cl)c(C(F)(F)F)c3)cc2)ccn1` [Sorafenib], the “diarrhea, grade 3–4 AE” value [2] is listed as 8%, the “hypertension, grade 3–4 AE” value [2] is listed as 2% and the “palmar-plantar erythrodysesthesia syndrome, grade 3–4 AE” value [2] is listed as 8%. The “patients with grade 3 toxicities that did not meet DLT criteria” value [3] was “five”, the “diarrhea, grade 3–4 AE” value [4] was 15% and the “hypertension, grade 3–4 AE” value [4] was 11%. The “palmar-plantar erythrodysesthesia syndrome, grade 3–4 AE” value [4] was 15%, the “change in serum IL-12p40” value [5] was “statistically significant decrease” and the “ORR in patients evaluable for response” value ([6]; 2/7, 95% CI 4%–71%) was 29%. The “ORR in all patients” value ([6]; 2/10, 95% CI 3%–56%) was 20%, the “Median duration of SD” value ([6]; range 1–5, 21-day cycles) was 4 cycles and the “CMAX and AUC0-12h of sorafenib compared with literature” value ([1]; 200 mg dose at steady state) was “within reported ranges”. The “effect of ritonavir on steady-state AUCTAU (exposure) of sorafenib” value ([1]; cohort on ritonavir vs not on ritonavir) was “not significantly affected by ritonavir; also recorded: only modestly affected” and the “change in serum bFGF” value [7] was “potential trend towards decreased bFGF”.
For `CCN(CC)CCNC(=O)c1c(C)[nH]c(/C=C2\C(=O)Nc3ccc(F)cc32)c1C` [sunitinib], the tolerability ([8]; HIV patients not taking ritonavir) is listed as “tolerated standard dosing”, the tolerability ([8]; patients receiving ritonavir) is listed as “higher toxicities at lower doses” and the “effect of ritonavir on sunitinib and active metabolite” value ([8]; patients with HIV and cancer) is listed as “decreases in the sunitinib active metabolite but not the parent drug”.
